This is an account of results in US5175166A, “Muscarinic agonists” (The University of Toledo, priority 1991, dated 1992).

The target of experiment [1] is muscarinic receptors. The experiment can be described thus: Binding, competition with 3H-oxotremorine M (3H-OXO-M), agonist binding (rat brain membranes). The conditions noted are these: 3 nM 3H-oxotremorine M, 15 minutes room temperature, mean of three experiments. As to the method: (§1) Other binding was determined indirectly by the ability of compounds to compete with 1 nM ^3 H-pirenzepine (^3 H--PZ), or 3 nM ^3 H-oxotremorine M (^3 H--OXO--M) in a suspension of brain membranes. Each sample contained approximately 0.1 mg/ml protein for ^3 H--OXO--M in 20 mM Tris-Cl buffer with 1 mM MnCl2 and varying concentrations of compound in a final volume of […]. Samples were incubated 1 hr. for ^3 H--PZ, and 15 minutes for ^3 H--OXO--M at room temperature and then filtered through glass fiber filters using a Brandell cell harvester adapted for receptor binding work and the filters were washed twice with two 5-ml portions of cold buffer. Nonspecific binding was evaluated by the inclusion of excess atropine in a separate set of samples. IC50 values were determined from Hill plots of the inhibition data and are reported as means of three independent experiments each performed in triplicate.
(§2) Rats were killed by cervical dislocation and their brains rapidly removed. Tissue was homogenized in 9 vol. (w/v) of a 40 mM sodium-potassium phosphate buffer solution (pH 7.4) buffer solution with a Brinkman Polytron homogenizer five times for 10 sec at 5 sec intervals. The crude homogenate was subjected to centrifugation for 10 min at 1000×g, the supernatant saved, and the pellet resuspended in 9 vol. (w/v) of homogenization buffer and spun for another 10 min at 1000×g. The supernatants were combined and spun again for 30 min at 17,500×g. The resultant pellet was resuspended by homogenization in a Teflon-glass homogenizer in 10 vol. of buffer, and washed by centrifugation at 17,500×g for 30 min. The final pellet was resuspended by hand homogenization with a Teflon and glass homogenizer in buffer. The suspension was then divided into several portions and stored at -70° C.
(§3) In the table, ^3 H-QNB indicates general binding to muscarinic receptors and the lower the number, the higher is the potency. ^3 H-PZ indicates binding to muscarinic receptors and a preference for M1 receptors involved in memory and cognition. The lower the number for ^3 H-PZ the higher the potencies; the same is true for ^3 H--OXO--M which indicates agonist binding. In general, the higher the ratio of the value for ^3 H--PZ to the value for ^3 H--OXO--M the better is the agonistic characteristic.

For experiment [2], the target named is T1, M1 receptors (Rattus norvegicus, UniProt P08482).
T1 sequence (P08482 1-460): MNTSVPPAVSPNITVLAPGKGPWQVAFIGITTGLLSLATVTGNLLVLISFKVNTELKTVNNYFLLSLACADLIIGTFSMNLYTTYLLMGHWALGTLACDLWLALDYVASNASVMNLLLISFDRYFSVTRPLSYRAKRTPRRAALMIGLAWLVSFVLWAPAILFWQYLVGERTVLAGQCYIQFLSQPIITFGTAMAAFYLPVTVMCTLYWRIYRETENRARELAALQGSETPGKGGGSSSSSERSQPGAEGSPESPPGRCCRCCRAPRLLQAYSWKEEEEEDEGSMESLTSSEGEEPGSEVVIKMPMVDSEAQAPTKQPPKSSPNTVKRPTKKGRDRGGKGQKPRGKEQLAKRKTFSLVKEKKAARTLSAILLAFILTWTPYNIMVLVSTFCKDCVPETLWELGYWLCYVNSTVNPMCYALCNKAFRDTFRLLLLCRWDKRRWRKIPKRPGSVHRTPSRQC
The experiment can be described thus: Binding, competition with 3H-pirenzepine (3H-PZ) (rat brain membranes). To be noted: 1 nM 3H-pirenzepine, 1 hr room temperature, mean of three experiments. The protocol:
as §1, §2, §3

Experiment [3] has as its system muscarinic receptors linked to M1, M3, M5 receptors. The experiment can be described thus: PI Cortex: phosphoinositide turnover in the cortex (brain slices). Type of experiment: cell-based, Male Long Evans rats. The conditions noted are these: Rattus norvegicus, read-out: PI Cortex, maximal % response above baseline.
Experimental: Male Long Evans rats (200-300 g) were decapitated and their brains were rapidly removed and dissected according to the method of Glowinski and Iversen. […] The slices were gently agitated at 37° C. in a shaking water bath for 45 min with three changes to buffer.
Immediately before each experiment, [^3 H] inositol was purified by drying under Nz and passing a portion through a 1-ml column of Dowex AGl-X8 (formate form) to remove contaminants. […] Aliquots (25 microliters) of tissue slices were pipetted into flat-bottomed Beckman-biovials (5-ml capacity) containing 0.3 mM [^3 H]-inositol (15 Ci/mmol) and 10 mM LiCl in 245 microliters of buffer. The vials were then gassed, capped and incubated at 37° C. in a shaking water bath for 30 min. At the end of 30 min, agonist (or buffer for the determination of basal levels) was then added (30 microliters), and the incubation continued for an additional 45 min. The 45 -min incubation period was selected on the basis of the time course of labeled inositol phosphates ([^3 H]-IP's) accumulation under these conditions. The incubations were stopped by the addition of 0.94 ml of CHCl3 /MeOH (1:2, V/V) followed by 0.31 ml of CHCl3 and 0.31 ml of H2 O. The samples were mixed with vigorous shaking and spun at 1000×g for 10 min to separate organic and aqueous phases. Aliquots (750 microliter) of the upper aqueous phase were removed for determination of [^3 H]-IP's. In some cases 200 ml aliquots of the organic phase were removed, dried overnight and counted in 5 ml of scintillant (Amersham) for determination of [^3 H]-inositol incorporation into phospholipids.
Briefly, ACCELL QMA anion-exchange SEP-PAK's (Waters Associates) cartridges were converted into the formate form by washing first with 10 ml of a solution of 1.0 M-ammonium formate in 0.1 M-formic acid, followed by 20 ml of distilled water. The sample loading and solution delivery were performed by using disposable plastic syringes; an approximate flow rate of 10-15 ml/min was maintained. Total [^3 H]-IP's were determined by the "batch" method in which 750 microliter aliquots of the aqueous phase obtained as described above was diluted to 3 ml with distilled water. The entire amount was loaded on to the ACCELL QMA anion-exchange SEP-PAK cartridge. The cartridge was then washed with 10 ml of distilled water, followed by 5 mM-disodium tetraborate. Radiolabeled IP's were then eluted with 1 ml of 0.6 M-ammonium formate/0.06 M formic acid/5 mM-disodium tetraborate (pH 4.75) and 0.50 ml of this eluate was counted in 5 ml of aqueous counting scintillant.
For experiment [4], the target named is muscarinic receptors. The experiment can be described thus: Binding to muscarinic receptors, competition with [3H]-QNB (rat brain membranes). To be noted: for IC50: 50 pM [3H]-QNB, rat brain membranes, pH 7.4, 2.0 hr room temperature, mean of three experiments; for binding to muscarinic receptors (in words): qualitative statement.
The test system of experiment [5] is muscarinic receptors. The experiment can be described thus: Phosphoinositide (PI) response / inositol phosphate formation in brain slices (region not stated). Type of experiment: cell-based, Male Long Evans rats. The conditions noted are these: qualitative statement. The protocol: The slices were gently agitated at 37° C. in a shaking water bath for 45 min with three changes to buffer.
The sample loading and solution delivery were performed by using disposable plastic syringes; an approximate flow rate of 10-15 ml/min was maintained.

For experiment [6], the system named is M1 receptors. The experiment can be described thus: Phosphoinositide turnover in the hippocampus (brain slices). Type of experiment: cell-based, Male Long Evans rats. The conditions noted are these: Rattus norvegicus, read-out: Phosphoinositide turnover in the hippocampus, maximal % response above baseline; for activation at 100 µM / activation at 50 µM: hippocampus. As to the method: The slices were gently agitated at 37° C. in a shaking water bath for 45 min with three changes to buffer. […] The samples were mixed with vigorous shaking and spun at 1000×g for 10 min to separate organic and aqueous phases. […] Briefly, […] anion-exchange SEP-PAK's (Waters Associates) cartridges were converted into the formate form by washing first with 10 ml of a solution of 1.0 M-ammonium formate in 0.1 M-formic acid, followed by 20 ml of distilled water. The sample loading and solution delivery were performed by using disposable plastic syringes; an approximate flow rate of 10-15 ml/min was maintained. […] The entire amount was loaded on to the […] anion-exchange SEP-PAK cartridge. […] Phosphoinositide turnover in the hippocampus indicates a biological response in an area of the brain where M1 receptors predominate. Higher numbers indicate greater efficacy and selectivity at M1 receptors.

Molecules are shown by their SMILES. Counter-ions that a name gives are not always drawn. Bounds are passed on as bounds.

For the compound `CCCOC(=O)C1CN=CNC1` (centres unmarked) [Example 3, n-Propyl 1,4,5,6-Tetrahydropyrimidine-5-carboxylate Hydrochloride], the IC50 – broadly, the concentration that inhibits the measured activity by half – on muscarinic receptors [1] came out at 1080 nM; on M1 receptors [2], 1330 nM; on muscarinic receptors [4] it was 2100 nM. Further, the activation at 100 µM in experiment [3] came to 7.1%.
Consider `CCOC(=O)C1CN=CNC1` (centres unmarked) [Example 2, 1,4,5,6-Tetrahydro-5-ethoxycarbonylpyrimidine Hydrochloride], for which the IC50 turned out to be 160 nM at muscarinic receptors [1] and 1900 nM on muscarinic receptors [4]. In addition, the activation at 100 µM in experiment [3] came out at 150%.
As for `CC(=O)OC1CN=CNC1.Cl` (centres unmarked) [Example 10, 5-Acetoxy-1,4,5,6-tetrahydropyrimidine HCl], the IC50 on muscarinic receptors [1] came out at 640 nM; at M1 receptors [2] it was 10000 nM; on muscarinic receptors [4], 31600 nM. In addition, the “binding to muscarinic receptors (in words)” value in the experiment with muscarinic receptors [4] is given as “acceptable binding data”. In addition, in the experiment with muscarinic receptors [5], the “PI response (in words)” value is listed as “efficacious with respect to the PI response”. In addition, in the experiment with M1 receptors [6], the activation at 100 µM worked out at 70%.
Regarding `CC(C)OC(=O)C1CN=CNC1` (centres unmarked) [Example 4, Isopropyl 1,4,5,6-Tetrahydropyrimidine-5-carboxylate Hydrochloride], the IC50 amounted to 1760 nM at muscarinic receptors [1] and 3500 nM on muscarinic receptors [4]. Moreover, the activation at 100 µM in experiment [3] worked out at 7.2%.
As to `COC(=O)C1CCCC(N)=N1` (centres unmarked) [Example 17, 2-Amino-6-methoxycarbonyl-3,4,5,6-tetrahydropyridine HCL], the IC50 at muscarinic receptors [1] is above 10000 nM; on M1 receptors [2] it was above 10000 nM; at muscarinic receptors [4], 130000 nM. Further, the activation at 100 µM in experiment [3] turned out to be 5.9%.
Take `COC(=O)C1CCC(N)=NC1.Cl` (centres unmarked) [Example 14, 2-Amino-5-methoxycarbonyl-3,4,5,6-tetrahydropyridine HCl]: the results for the IC50 on muscarinic receptors [1], on M1 receptors [2] and at muscarinic receptors [4] were 114 nM, 770 nM and 7300 nM, respectively. For the same compound, the activation at 100 µM in experiment [3] amounted to 265%. In addition, the “PI response (in words)” value in the experiment on muscarinic receptors [5] is given as “unexpectedly superior PI response”.
Regarding `C#CCOC(=O)C1CN=CNC1` (centres unmarked) [Example 6, Propynyl 1,4,5,6-Tetrahydropyrimidine-5-carboxylate Hydrochloride], the activation at 100 µM in experiment [3] is 230%. Besides, the IC50 on muscarinic receptors [4] came out at 1900 nM.
At muscarinic receptors [1], `COC(=O)C1CN=CNC1` (centres unmarked) [Example 1, 1,4,5,6-Tetrahydro-5-methoxycarbonylpyrimidine Hydrobromide] registered an IC50 of 90 nM. Also, the activation at 100 µM in experiment [3] was 131%. Moreover, the activation at 1000 µM in the experiment with M1 receptors [6] worked out at 237%.
Regarding `CC(=O)OC1CN=C(C(F)(F)F)NC1.Cl` (centres unmarked) [Example 18, 5-Acetoxy-2-trifluoromethyl-1,4,5,6-tetrahydropyrimidine HCl], the IC50 at muscarinic receptors [1] is above 10000 nM; on M1 receptors [2] it was above 10000 nM; at muscarinic receptors [4], 8700 nM. Besides, in the experiment on muscarinic receptors [5], the “PI response (in words)” value is “no PI response”. In addition, in the experiment with M1 receptors [6], the activation at 50 µM stood at 0%.
On to `COC(=O)C1=CNCN(C)C1` [Example 11, 1-Methyl-5-methoxycarbonyl-1,2,3,6-tetrahydropyrimidine HCl], for which the IC50 was 2400 nM on muscarinic receptors [1], 15000 nM on M1 receptors [2] and 25100 nM at muscarinic receptors [4]. Besides, the activation at 1000 µM in experiment [3] (dose 1 mM) came out at 182%.
As to `CC(=O)OC1CN=C(C)NC1` (centres unmarked) [Example 19, 2-methyl-5-acetoxy-1,4,5,6-tetrahydropyrimidine], the IC50 was above 10000 nM on muscarinic receptors [1], above 10000 nM on M1 receptors [2] and 100000 nM at muscarinic receptors [4]. In the experiment with muscarinic receptors [4], the “binding to muscarinic receptors (in words)” value is recorded as “extremely poor binding to muscarinic receptors”. Besides, in the experiment with muscarinic receptors [5], the “PI response (in words)” value is on record as “virtually no PI response”. Further, the activation at 50 µM in the experiment on M1 receptors [6] stood at 0%.
On to `COC(=O)C1CCN=C(N)C1` (centres unmarked) [Example 16, 2-Amino-4-methoxycarbonyl-3,4,5,6-tetrahydropyridine HCL], for which the activation at 100 µM in experiment [3] came to 9%. The same compound displayed an IC50 at muscarinic receptors [4] of 130000 nM.
On to `O=C(OCc1ccccc1)C1CN=CNC1` (centres unmarked) [Example 5, Benzyl 1,4,5,6-Tetrahydropyrimidine-5-carboxylate Hydrochloride], for which the IC50 is 1090 nM at muscarinic receptors [1], 1260 nM at M1 receptors [2] and around 1000 nM at muscarinic receptors [4]. Besides, in experiment [3], the activation at 100 µM was 3.5%.
In the same order, the values of `COC(=O)C1CCCN=C1N` (centres unmarked) [Example 15, 2-amino-3-methoxycarbonyl-3,4,5,6-tetrahydropyridine HCl] are above 10000 nM, 13000 nM, 83000 nM and -5.5%.
Consider `Cc1noc(C2CN=CNC2)n1` (centres unmarked) [Example 9, 1,4,5,6-Tetrahydro-5-(3-methyl-1,2,4-oxadiazol-5-yl)pyrimidine trifluoroacetate], for which the IC50 was found to be 26 nM at muscarinic receptors [1] and 2000 nM at muscarinic receptors [4]. The activation at 100 µM came to 700% in experiment [3] and 704% in the experiment with M1 receptors [6].
